Data as given in patent publication US20260191838A1, “COMBINATIONS COMPRISING A MENIN-MLL INHIBITOR AND A BCL-2 INHIBITOR” (JANSSEN PHARMACEUTICA NV, priority 2022, published 2026).

Tested on: MOLM-13 (KMT2A-r) cell line
Test: In vitro proliferation (spheroid confluence, Incucyte), Compound 51 with venetoclax and optionally azacitidine, MOLM-13
Format: cell-based, human
Procedure: 3b) In Vitro Proliferation—Menin-MLL Inhibitor in Combination with Venetoclax and Optionally, Azacitidine
The effect of Compound 51, alone or in combination with venetoclax, or in combination with venetoclax+azacitidine, was determined in proliferation assays using the MOLM-13 (KMT2A-r) cell line.
MOLM-13 cells were seeded in 96-well, round-bottom, ultra-low attachment plates. The following dilution series were used: Compound 51 at an initial concentration of 1 μM, followed by a 5- or 6-point, 4-fold serial dilution series; azacitidine at an initial concentration of 25 μM, followed by a 6-point, 5-fold serial dilution series; and venetoclax at an initial concentration of 3 μM, followed by a 5- or 6-point, 5-fold serial dilution series. In the combination treatments that included venetoclax, venetoclax was added to the cells 4 days after treatment with Compound 51 and/or azacitidine was initiated. The triplet combination of Compound 51, in a checkerboard titration design with azacitidine+venetoclax, was tested at the same concentrations.
The optimal cell seeding number (500 cells/well) was chosen based on growth curves to ensure linear growth throughout the entire experiment. The DMSO content was normalized to 0.3% and cells were incubated for 8 days at 37° C., 5% CO2. Spheroid-like growth was monitored in real-time by non-invasive live-cell imaging using the 4× objective of the Incucyte ZOOM live cell imaging system (Essen BioScience), and images were acquired on Day 8. The percent confluence, as a measure of spheroid size, was determined using an integrated analysis tool that is part of the Incucyte ZOOM software “IncuCyte ZOOM 2016B” (Essen BioScience). The percent confluence from the DMSO well was used as baseline response. Each experiment contained 4 replicates of each condition and the experiment was performed 3 times. Potential combination effects were analyzed for synergy using an R-based Biochemically Intuitive Generalized Loewe (BIGL) model implemented with a highest single agent (HSA) null model (Van der Borght 2017).

In the case of `CC(=O)N1CCC(CN2CC[C@@H](Cc3cn(-c4ccc(F)cc4C(=O)N(C)C(C)C)c4cncc(C)c34)C2)CC1` [Compound 51], the “Effect size (BIGL, HSA null model)” value (doublet: Compound 51 0.0002 μM, Venetoclax 0.0003 μM) is reported as 0.02, the “Effect size (BIGL, HSA null model)” value (doublet: Compound 51 0.0002 μM, Venetoclax 0.0016 μM) is reported as 0.01 and the “Effect size (BIGL, HSA null model)” value (doublet: Compound 51 0.0002 μM, Venetoclax 0.008 μM) is reported as 0.05. For the same compound, the “Effect size (BIGL, HSA null model)” value (doublet: Compound 51 0.0002 μM, Venetoclax 0.04 μM) was 0.02, the “Effect size (BIGL, HSA null model)” value (doublet: Compound 51 0.0002 μM, Venetoclax 0.2 μM) was 0.08 and the “Effect size (BIGL, HSA null model)” value (doublet: Compound 51 0.0002 μM, Venetoclax 1 μM) was −0.05. The “Effect size (BIGL, HSA null model)” value (doublet: Compound 51 0.001 μM, Venetoclax 0.0003 μM) was 0.01, the “Effect size (BIGL, HSA null model)” value (doublet: Compound 51 0.001 μM, Venetoclax 0.0016 μM) was 0.03 and the “Effect size (BIGL, HSA null model)” value (doublet: Compound 51 0.001 μM, Venetoclax 0.008 μM) was 0.02. For the same compound, the “Effect size (BIGL, HSA null model)” value (doublet: Compound 51 0.001 μM, Venetoclax 0.04 μM) was 0.00, the “Effect size (BIGL, HSA null model)” value (doublet: Compound 51 0.001 μM, Venetoclax 0.2 μM) was 0.05 and the “Effect size (BIGL, HSA null model)” value (doublet: Compound 51 0.001 μM, Venetoclax 1 μM) was −0.05. For the same compound, the “Effect size (BIGL, HSA null model)” value (doublet: Compound 51 0.004 μM, Venetoclax 0.0003 μM) was 0.05, the “Effect size (BIGL, HSA null model)” value (doublet: Compound 51 0.004 μM, Venetoclax 0.0016 μM) was 0.04 and the “Effect size (BIGL, HSA null model)” value (doublet: Compound 51 0.004 μM, Venetoclax 0.008 μM) was 0.04. For the same compound, the “Effect size (BIGL, HSA null model)” value (doublet: Compound 51 0.004 μM, Venetoclax 0.04 μM) was −0.03, the “Effect size (BIGL, HSA null model)” value (doublet: Compound 51 0.004 μM, Venetoclax 0.2 μM) was 0.40 and the “Effect size (BIGL, HSA null model)” value (doublet: Compound 51 0.004 μM, Venetoclax 1 μM) was −0.09. For the same compound, the “Effect size (BIGL, HSA null model)” value (doublet: Compound 51 0.0156 μM, Venetoclax 0.0003 μM) was −0.04, the “Effect size (BIGL, HSA null model)” value (doublet: Compound 51 0.0156 μM, Venetoclax 0.008 μM) was −0.27 and the “Effect size (BIGL, HSA null model)” value (doublet: Compound 51 0.0156 μM, Venetoclax 0.04 μM) was −0.42. The “Effect size (BIGL, HSA null model)” value (doublet: Compound 51 0.0156 μM, Venetoclax 0.2 μM) was −0.24, the “Effect size (BIGL, HSA null model)” value (doublet: Compound 51 0.0156 μM, Venetoclax 1 μM) was −0.18 and the “Effect size (BIGL, HSA null model)” value (doublet: Compound 51 0.0625 μM, Venetoclax 0.0003 μM) was −0.01. For the same compound, the “Effect size (BIGL, HSA null model)” value (doublet: Compound 51 0.0625 μM, Venetoclax 0.0016 μM) was −0.04, the “Effect size (BIGL, HSA null model)” value (doublet: Compound 51 0.0625 μM, Venetoclax 0.008 μM) was −0.12 and the “Effect size (BIGL, HSA null model)” value (doublet: Compound 51 0.0625 μM, Venetoclax 0.04 μM) was −0.15. For the same compound, the “Effect size (BIGL, HSA null model)” value (doublet: Compound 51 0.0625 μM, Venetoclax 0.2 μM) was −0.15, the “Effect size (BIGL, HSA null model)” value (doublet: Compound 51 0.0625 μM, Venetoclax 1 μM) was −0.16 and the “Effect size (BIGL, HSA null model)” value (doublet: Compound 51 0.25 μM, Venetoclax 0.0003 μM) was 0.00. For the same compound, the “Effect size (BIGL, HSA null model)” value (doublet: Compound 51 0.25 μM, Venetoclax 0.0016 μM) was 0.11, the “Effect size (BIGL, HSA null model)” value (doublet: Compound 51 0.25 μM, Venetoclax 0.008 μM) was −0.05 and the “Effect size (BIGL, HSA null model)” value (doublet: Compound 51 0.25 μM, Venetoclax 0.04 μM) was −0.07. For the same compound, the “Effect size (BIGL, HSA null model)” value (doublet: Compound 51 0.25 μM, Venetoclax 0.2 μM) was −0.13, the “Effect size (BIGL, HSA null model)” value (doublet: Compound 51 0.25 μM, Venetoclax 1 μM) was −0.07 and the “Effect size (BIGL, HSA null model)” value (doublet: Compound 51 1 μM, Venetoclax 0.0003 μM) was −0.02. The “Effect size (BIGL, HSA null model)” value (doublet: Compound 51 1 μM, Venetoclax 0.0016 μM) was −0.03, the “Effect size (BIGL, HSA null model)” value (doublet: Compound 51 1 μM, Venetoclax 0.008 μM) was −0.07 and the “Effect size (BIGL, HSA null model)” value (doublet: Compound 51 1 μM, Venetoclax 0.04 μM) was −0.08. The “Effect size (BIGL, HSA null model)” value (doublet: Compound 51 1 μM, Venetoclax 0.2 μM) was −0.07, the “Effect size (BIGL, HSA null model)” value (doublet: Compound 51 1 μM, Venetoclax 1 μM) was −0.06 and the “Effect size (BIGL, HSA null model)” value (triplet: Compound 51 0.001 μM, Venetoclax 0.0001 μM, Azacitidine 0.008 μM) was 0.03. The “Effect size (BIGL, HSA null model)” value (triplet: Compound 51 0.001 μM, Venetoclax 0.0002 μM, Azacitidine 0.0016 μM) was 0.03, the “Effect size (BIGL, HSA null model)” value (triplet: Compound 51 0.001 μM, Venetoclax 0.005 μM, Azacitidine 0.04 μM) was 0.05 and the “Effect size (BIGL, HSA null model)” value (triplet: Compound 51 0.001 μM, Venetoclax 0.024 μM, Azacitidine 0.2 μM) was −0.02. For the same compound, the “Effect size (BIGL, HSA null model)” value (triplet: Compound 51 0.001 μM, Venetoclax 0.12 μM, Azacitidine 1 μM) was 0.01, the “Effect size (BIGL, HSA null model)” value (triplet: Compound 51 0.001 μM, Venetoclax 0.6 μM, Azacitidine 5 μM) was −0.03 and the “Effect size (BIGL, HSA null model)” value (triplet: Compound 51 0.001 μM, Venetoclax 3 μM, Azacitidine 25 μM) was 0.01. For the same compound, the “Effect size (BIGL, HSA null model)” value (triplet: Compound 51 0.004 μM, Venetoclax 0.0001 μM, Azacitidine 0.008 μM) was 0.03, the “Effect size (BIGL, HSA null model)” value (triplet: Compound 51 0.004 μM, Venetoclax 0.0002 μM, Azacitidine 0.0016 μM) was 0.04 and the “Effect size (BIGL, HSA null model)” value (triplet: Compound 51 0.004 μM, Venetoclax 0.005 μM, Azacitidine 0.04 μM) was 0.04. The “Effect size (BIGL, HSA null model)” value (triplet: Compound 51 0.004 μM, Venetoclax 0.024 μM, Azacitidine 0.2 μM) was −0.05, the “Effect size (BIGL, HSA null model)” value (triplet: Compound 51 0.004 μM, Venetoclax 0.12 μM, Azacitidine 1 μM) was −0.08 and the “Effect size (BIGL, HSA null model)” value (triplet: Compound 51 0.004 μM, Venetoclax 0.6 μM, Azacitidine 5 μM) was −0.03. For the same compound, the “Effect size (BIGL, HSA null model)” value (triplet: Compound 51 0.004 μM, Venetoclax 3 μM, Azacitidine 25 μM) was 0.01, the “Effect size (BIGL, HSA null model)” value (triplet: Compound 51 0.0625 μM, Venetoclax 0.0002 μM, Azacitidine 0.0016 μM) was 0.02 and the “Effect size (BIGL, HSA null model)” value (triplet: Compound 51 0.25 μM, Venetoclax 0.0001 μM, Azacitidine 0.008 μM) was −0.00. For the same compound, the “Effect size (BIGL, HSA null model)” value (triplet: Compound 51 0.25 μM, Venetoclax 0.0002 μM, Azacitidine 0.0016 μM) was 0.00, the “Effect size (BIGL, HSA null model)” value (triplet: Compound 51 0.25 μM, Venetoclax 0.005 μM, Azacitidine 0.04 μM) was 0.11 and the “Effect size (BIGL, HSA null model)” value (triplet: Compound 51 0.25 μM, Venetoclax 0.024 μM, Azacitidine 0.2 μM) was −0.07. The “Effect size (BIGL, HSA null model)” value (triplet: Compound 51 0.25 μM, Venetoclax 0.12 μM, Azacitidine 1 μM) was −0.14, the “Effect size (BIGL, HSA null model)” value (triplet: Compound 51 0.25 μM, Venetoclax 0.6 μM, Azacitidine 5 μM) was −0.06 and the “Effect size (BIGL, HSA null model)” value (triplet: Compound 51 0.25 μM, Venetoclax 3 μM, Azacitidine 25 μM) was 0.01. The “Effect size (BIGL, HSA null model)” value (triplet: Compound 51 1 μM, Venetoclax 0.0001 μM, Azacitidine 0.008 μM) was −0.02, the “Effect size (BIGL, HSA null model)” value (triplet: Compound 51 1 μM, Venetoclax 0.0002 μM, Azacitidine 0.0016 μM) was −0.01 and the “Effect size (BIGL, HSA null model)” value (triplet: Compound 51 1 μM, Venetoclax 0.005 μM, Azacitidine 0.04 μM) was −0.04. For the same compound, the “Effect size (BIGL, HSA null model)” value (triplet: Compound 51 1 μM, Venetoclax 0.024 μM, Azacitidine 0.2 μM) was −0.08, the “Effect size (BIGL, HSA null model)” value (triplet: Compound 51 1 μM, Venetoclax 0.12 μM, Azacitidine 1 μM) was −0.14 and the “Effect size (BIGL, HSA null model)” value (triplet: Compound 51 1 μM, Venetoclax 0.6 μM, Azacitidine 5 μM) was −0.05. For the same compound, the “Effect size (BIGL, HSA null model)” value (triplet: Compound 51 1 μM, Venetoclax 3 μM, Azacitidine 25 μM) was 0.02.
